Assay results reported in PubChem BioAssay (NCI).
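Compound exposure: 48 hours, 5 concentrations, 96-well plates. Definition used: TGI = concentration required for complete inhibition of growth.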

Assays:
Experiment in all cases: NCI-60 cell line screen, 48 h
[1] = tested on: 786-0 renal
[2] = tested on: A498 renal
[3] = tested on: A549 NSCLC
[4] = tested on: ACHN renal
[5] = tested on: BT-549 breast
[6] = tested on: CAKI-1 renal
[7] = tested on: CCRF-CEM leukemia
[8] = tested on: COLO 205 colon
[9] = tested on: DU-145 prostate
[10] = tested on: EKVX NSCLC
[11] = tested on: HCC-2998 colon
[12] = tested on: HCT-116 colon
[13] = tested on: HCT-15 colon
[14] = tested on: HL-60(TB) leukemia
[15] = tested on: HOP-62 NSCLC
[16] = tested on: HOP-92 NSCLC
[17] = tested on: HS 578T breast
[18] = tested on: HT29 colon
[19] = tested on: IGROV1 ovarian
[20] = tested on: K-562 leukemia
[21] = tested on: KM12 colon
[22] = tested on: LOX IMVI melanoma
[23] = tested on: M14 melanoma
[24] = tested on: MALME-3M melanoma
[25] = tested on: MCF7 breast
[26] = tested on: MDA-MB-231 breast
[27] = tested on: MDA-MB-435
[28] = tested on: MDA-N
[29] = tested on: NCI-H226 lung
[30] = tested on: NCI-H23 lung
[31] = tested on: NCI-H460 lung
[32] = tested on: NCI-H522 lung
[33] = tested on: NCI/ADR-RES ovarian
[34] = tested on: OVCAR-4 ovarian
[35] = tested on: OVCAR-5 ovarian
[36] = tested on: OVCAR-8 ovarian
[37] = tested on: PC-3 prostate
[38] = tested on: RPMI-8226 leukemia
[39] = tested on: RXF 393 renal
[40] = tested on: SF-268 CNS
[41] = tested on: SF-295 CNS
[42] = tested on: SK-MEL-2 melanoma
[43] = tested on: SK-MEL-28 melanoma
[44] = tested on: SK-MEL-5 melanoma
[45] = tested on: SK-OV-3 ovarian
[46] = tested on: SN12C renal
[47] = tested on: SNB-19 CNS
[48] = tested on: SNB-75 CNS
[49] = tested on: SW-620 colon
[50] = tested on: T-47D breast
[51] = tested on: TK-10 renal
[52] = tested on: U251 CNS
[53] = tested on: UACC-257 melanoma
[54] = tested on: UACC-62 melanoma
[55] = tested on: UO-31 renal
[56] = tested on: MOLT-4 leukemia
[57] = tested on: OVCAR-3 ovarian
[58] = tested on: SF-539 CNS

Q: For O=C1Nc2cc(Cl)ccc2C(=O)N2CCC[C@@H]12, which TGI [1] is on record?
A: > 100 µM

Q: And the TGI [2]?
A: > 100 µM

Q: What about the TGI [3] of the same compound?
A: > 100 µM

Q: And the TGI [4]?
A: > 100 µM

Q: What about the TGI [5] of the same compound?
A: > 100 µM

Q: And the TGI [6]?
A: > 100 µM

Q: What about the TGI [7] of the same compound?
A: > 100 µM

Q: And the TGI [8]?
A: > 100 µM

Q: What about the TGI [9] of the same compound?
A: > 100 µM

Q: What about the TGI [10] of the same compound?
A: > 100 µM

Q: What about the TGI [11] of the same compound?
A: > 100 µM

Q: What about the TGI [12] of the same compound?
A: > 100 µM

Q: What about the TGI [13] of the same compound?
A: > 100 µM

Q: And the TGI [14]?
A: > 100 µM

Q: What about the TGI [15] of the same compound?
A: > 100 µM

Q: What about the TGI [16] of the same compound?
A: > 100 µM

Q: And the TGI [17]?
A: > 100 µM

Q: What about the TGI [18] of the same compound?
A: > 100 µM

Q: And the TGI [19]?
A: > 100 µM

Q: What about the TGI [20] of the same compound?
A: > 100 µM

Q: What about the TGI [21] of the same compound?
A: > 100 µM

Q: And the TGI [22]?
A: > 100 µM

Q: What about the TGI [23] of the same compound?
A: > 100 µM

Q: What about the TGI [24] of the same compound?
A: > 100 µM

Q: And the TGI [25]?
A: > 100 µM

Q: What about the TGI [26] of the same compound?
A: > 100 µM

Q: What about the TGI [27] of the same compound?
A: > 100 µM

Q: And the TGI [28]?
A: > 100 µM

Q: And the TGI [29]?
A: 98.2 µM

Q: And the TGI [30]?
A: > 100 µM

Q: And the TGI [31]?
A: > 100 µM

Q: What about the TGI [32] of the same compound?
A: > 100 µM

Q: What about the TGI [33] of the same compound?
A: > 100 µM

Q: What about the TGI [34] of the same compound?
A: > 100 µM

Q: What about the TGI [35] of the same compound?
A: > 100 µM

Q: What about the TGI [36] of the same compound?
A: > 100 µM

Q: What about the TGI [37] of the same compound?
A: > 100 µM

Q: And the TGI [38]?
A: > 100 µM

Q: And the TGI [39]?
A: > 100 µM

Q: What about the TGI [40] of the same compound?
A: > 100 µM

Q: What about the TGI [41] of the same compound?
A: > 100 µM

Q: And the TGI [42]?
A: > 100 µM

Q: What about the TGI [43] of the same compound?
A: > 100 µM

Q: What about the TGI [44] of the same compound?
A: > 100 µM

Q: And the TGI [45]?
A: > 100 µM

Q: What about the TGI [46] of the same compound?
A: > 100 µM

Q: What about the TGI [47] of the same compound?
A: > 100 µM

Q: And the TGI [48]?
A: > 100 µM

Q: And the TGI [49]?
A: > 100 µM

Q: What about the TGI [50] of the same compound?
A: > 100 µM

Q: What about the TGI [51] of the same compound?
A: > 100 µM

Q: And the TGI [52]?
A: > 100 µM

Q: What about the TGI [53] of the same compound?
A: > 100 µM

Q: And the TGI [54]?
A: > 100 µM

Q: And the TGI [55]?
A: > 100 µM

Q: Which TGI [1] does the source give for O=C1c2[nH]c3ccccc3c2CCN2CCCCC12 (stereo unspecified) here?
A: 56.9 µM

Q: What about the TGI [2] of the same compound?
A: 78.3 µM

Q: What about the TGI [3] of the same compound?
A: 76.3 µM

Q: What about the TGI [4] of the same compound?
A: 46 µM

Q: And the TGI [5]?
A: 65.8 µM

Q: What about the TGI [6] of the same compound?
A: > 100 µM

Q: And the TGI [7]?
A: 57.3 µM

Q: What about the TGI [8] of the same compound?
A: 34.9 µM

Q: What about the TGI [9] of the same compound?
A: > 100 µM

Q: And the TGI [10]?
A: 53.7 µM

Q: And the TGI [11]?
A: 33.2 µM

Q: What about the TGI [12] of the same compound?
A: 54.6 µM

Q: And the TGI [13]?
A: > 100 µM

Q: And the TGI [14]?
A: 13.3 µM

Q: What about the TGI [15] of the same compound?
A: > 100 µM

Q: And the TGI [16]?
A: 41.8 µM

Q: And the TGI [17]?
A: 71.8 µM

Q: And the TGI [18]?
A: > 100 µM

Q: What about the TGI [19] of the same compound?
A: 56 µM

Q: What about the TGI [20] of the same compound?
A: 95.3 µM

Q: And the TGI [21]?
A: 32.4 µM

Q: And the TGI [22]?
A: 44.9 µM

Q: And the TGI [23]?
A: 35.3 µM

Q: What about the TGI [24] of the same compound?
A: 46.5 µM

Q: And the TGI [25]?
A: > 100 µM

Q: What about the TGI [26] of the same compound?
A: 41.3 µM

Q: And the TGI [27]?
A: 31 µM

Q: What about the TGI [28] of the same compound?
A: 39.6 µM

Q: And the TGI [56]?
A: 56.7 µM

Q: And the TGI [29]?
A: 48.8 µM

Q: And the TGI [30]?
A: 63.7 µM

Q: What about the TGI [31] of the same compound?
A: > 100 µM

Q: And the TGI [32]?
A: 39.8 µM

Q: What about the TGI [33] of the same compound?
A: 59 µM

Q: What about the TGI [57] of the same compound?
A: 37.1 µM

Q: What about the TGI [34] of the same compound?
A: 96.5 µM

Q: What about the TGI [35] of the same compound?
A: 44.1 µM

Q: What about the TGI [36] of the same compound?
A: 65.9 µM

Q: And the TGI [37]?
A: 35.7 µM

Q: And the TGI [38]?
A: 42.6 µM

Q: And the TGI [39]?
A: 61.2 µM

Q: And the TGI [40]?
A: 78.9 µM

Q: What about the TGI [41] of the same compound?
A: 90.2 µM

Q: And the TGI [58]?
A: 40.2 µM

Q: And the TGI [42]?
A: 36.3 µM

Q: What about the TGI [43] of the same compound?
A: > 100 µM

Q: And the TGI [45]?
A: > 100 µM

Q: What about the TGI [46] of the same compound?
A: > 100 µM

Q: What about the TGI [47] of the same compound?
A: 61.7 µM

Q: And the TGI [48]?
A: 73.5 µM

Q: And the TGI [49]?
A: 65.9 µM

Q: What about the TGI [50] of the same compound?
A: 74.9 µM

Q: What about the TGI [51] of the same compound?
A: 72.4 µM

Q: What about the TGI [52] of the same compound?
A: 38.3 µM

Q: What about the TGI [53] of the same compound?
A: 39.5 µM

Q: And the TGI [54]?
A: 37 µM
